EC50 data for 3 compounds are collected here from patent publication US12465652B2 (AMGEN INC., priority 2017, dated 2025).

Experiment [1] deals with T1, human GLP-IR (Homo sapiens, UniProt P43220). The experiment in a line: GLP1 activity | EC50 (pM). The text has this: Table printed on a drawing sheet, FIG. 1A
Head of the field: GLP1 activity | EC50 (pM)
The patent's description of the figure: FIG. 1A-1B: Synthetic Peptides (FIG. 1A discloses SEQ ID NOS 3948 and 3275-3298 and FIG. 1B discloses SEQ ID NOS 3948 and 3299-3302, all respectively, in order of appearance)
First copying reader's note: The first head row prints a reference sequence (residues at positions 7-35) above the position numbers; two fully empty rows separate groups of peptides.
Where the first naming reader finds the target: passage: CHOK1 cells stably expressing the human GLP-IR were used to measure peptide or recombinant fusion-induced cAMP production

In experiment [2] the target is T1, human GLP-IR. The experiment is described as follows: GLP1 activity | EC50 (M). An excerpt: Table printed on a drawing sheet, FIG. 1A Head of the field: GLP1 activity | EC50 (M) The patent's description of the figure: FIG. 1A-1B: Synthetic Peptides (FIG. 1A discloses SEQ ID NOS 3948 and 3275-3298 and FIG. 1B discloses SEQ ID NOS 3948 and 3299-3302, all respectively, in order of appearance) First copying reader's note: The first head row prints a reference sequence (residues at positions 7-35) above the position numbers; two fully empty rows separate groups of peptides. Where the first naming reader finds the target: passage: CHOK1 cells stably expressing the human GLP-IR were used to measure peptide or recombinant fusion-induced cAMP production

T1 sequence (P43220 24-463 limits assumed): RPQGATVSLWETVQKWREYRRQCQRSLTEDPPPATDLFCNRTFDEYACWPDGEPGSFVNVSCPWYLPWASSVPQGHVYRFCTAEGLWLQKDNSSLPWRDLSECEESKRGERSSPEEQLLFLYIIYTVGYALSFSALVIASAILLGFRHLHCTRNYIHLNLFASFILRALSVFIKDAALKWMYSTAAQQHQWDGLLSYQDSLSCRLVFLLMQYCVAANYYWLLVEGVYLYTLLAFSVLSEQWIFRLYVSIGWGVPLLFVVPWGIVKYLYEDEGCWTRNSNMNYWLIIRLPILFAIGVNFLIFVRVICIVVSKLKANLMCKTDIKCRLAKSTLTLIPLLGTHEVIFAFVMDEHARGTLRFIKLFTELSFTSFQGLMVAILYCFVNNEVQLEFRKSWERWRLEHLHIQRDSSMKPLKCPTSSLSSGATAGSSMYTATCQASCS

In general, EC50 refers to the midpoint of the concentration-response curve. Compound `CC[C@H](C)[C@H](NC(=O)[C@H](Cc1ccccc1)NC(=O)[C@H](CCC(=O)O)NC(=O)[C@H](CCCCN)NC(=O)[C@H](C)NC(=O)[C@H](C)NC(=O)[C@H](CCC(N)=O)NC(=O)CNC(=O)[C@H](CCC(=O)O)NC(=O)[C@H](CC(C)C)NC(=O)[C@H](Cc1ccc(O)cc1)NC(=O)[C@H](CO)NC(=O)[C@H](CO)NC(=O)[C@@H](NC(=O)[C@H](CC(=O)O)NC(=O)[C@H](CO)NC(=O)[C@@H](NC(=O)[C@H](Cc1ccccc1)NC(=O)[C@@H](NC(=O)CNC(=O)[C@H](CCC(=O)O)NC(=O)CNC(=O)[C@H](Cc1c[nH]cn1)NC(=O)CN)[C@@H](C)O)[C@@H](C)O)C(C)C)C(=O)N[C@@H](C)C(=O)N[C@@H](Cc1c[nH]c2ccccc12)C(=O)N[C@@H](CC(C)C)C(=O)N[C@H](C(=O)N[C@@H](CCCCN)C(=O)NCC(=O)O)C(C)C` [3166961#1, GHGEGTFTSDVSSYLEGQAAKEFIAWLVKG] returned a concentration giving a half-maximal response (EC50) in experiment [1] of 0.205 nM.

Regarding `CC[C@H](C)[C@H](NC(=O)[C@H](Cc1ccccc1)NC(=O)[C@H](CCC(=O)O)NC(=O)[C@H](CCCCN)NC(=O)[C@H](C)NC(=O)[C@H](C)NC(=O)[C@H](CCC(N)=O)NC(=O)CNC(=O)[C@H](CCC(=O)O)NC(=O)[C@H](CC(C)C)NC(=O)[C@H](Cc1ccc(O)cc1)NC(=O)[C@H](CO)NC(=O)[C@H](CO)NC(=O)[C@@H](NC(=O)[C@H](CC(=O)O)NC(=O)[C@H](CO)NC(=O)[C@@H](NC(=O)[C@H](Cc1ccccc1)NC(=O)[C@@H](NC(=O)CNC(=O)[C@H](CCC(=O)O)NC(=O)CNC(=O)[C@H](Cc1c[nH]cn1)NC(=O)[C@@H](N)Cc1c[nH]cn1)[C@@H](C)O)[C@@H](C)O)C(C)C)C(=O)N[C@@H](C)C(=O)N[C@@H](Cc1c[nH]c2ccccc12)C(=O)N[C@@H](CC(C)C)C(=O)N[C@H](C(=O)N[C@@H](CCCCN)C(=O)NCC(=O)O)C(C)C` [3166962#1, HHGEGTFTSDVSSYLEGQAAKEFIAWLVKG], in experiment [1], the concentration giving a half-maximal response (EC50) came to 0.363 nM. Take `CC[C@H](C)[C@H](NC(=O)[C@H](Cc1ccccc1)NC(=O)[C@H](CCC(=O)O)NC(=O)[C@H](CCCCN)NC(=O)[C@H](C)NC(=O)[C@H](C)NC(=O)[C@H](CCC(N)=O)NC(=O)CNC(=O)[C@H](CCC(=O)O)NC(=O)[C@H](CC(C)C)NC(=O)[C@H](Cc1ccc(O)cc1)NC(=O)[C@H](CO)NC(=O)[C@H](CO)NC(=O)[C@@H](NC(=O)[C@H](CC(=O)O)NC(=O)[C@H](CO)NC(=O)[C@@H](NC(=O)[C@H](Cc1ccccc1)NC(=O)[C@@H](NC(=O)CNC(=O)[C@H](CCC(=O)O)NC(=O)CNC(=O)[C@H](Cc1c[nH]cn1)NC(=O)[C@H](C)N)[C@@H](C)O)[C@@H](C)O)C(C)C)C(=O)N[C@@H](C)C(=O)N[C@@H](Cc1c[nH]c2ccccc12)C(=O)N[C@@H](CC(C)C)C(=O)N[C@H](C(=O)N[C@@H](CCCCN)C(=O)NCC(=O)O)C(C)C` [3166749#1, AHGEGTFTSDVSSYLEGQAAKEFIAWLVKG]: the EC50 in experiment [2] stood at 0.0669 nM.
